# Values of other authors in patent US5385929A, “[(Hydroxyphenylamino) carbonyl] pyrroles” (Warner-Lambert Company, priority 1994, dated 1995).
# Test system: biosynthesis of cholesterol
# Conditions: qualitative; described in U.S. Pat. No. 5,273,995
smiles,measurement,value
"CC(C)c1c(C(=O)Nc2ccccc2)c(-c2ccccc2)c(-c2ccc(F)cc2)n1CC[C@@H](O)C[C@@H](O)CC(=O)O [Compound of Patent 5,273,995 (open form), [R-(R*,R*)]-2-(4-fluorophenyl)-β,δ-dihydroxy-5-(1-methylethyl)-3-phenyl-4-[(phenylamino)carbonyl]-1H-pyrrole-1-heptanoic acid]",activity as a hypocholesterolemic agent,particularly active as a hypocholesterolemic agent
